SMILES strings stand for the structures.

Chain of TrkA (P04629 33-796): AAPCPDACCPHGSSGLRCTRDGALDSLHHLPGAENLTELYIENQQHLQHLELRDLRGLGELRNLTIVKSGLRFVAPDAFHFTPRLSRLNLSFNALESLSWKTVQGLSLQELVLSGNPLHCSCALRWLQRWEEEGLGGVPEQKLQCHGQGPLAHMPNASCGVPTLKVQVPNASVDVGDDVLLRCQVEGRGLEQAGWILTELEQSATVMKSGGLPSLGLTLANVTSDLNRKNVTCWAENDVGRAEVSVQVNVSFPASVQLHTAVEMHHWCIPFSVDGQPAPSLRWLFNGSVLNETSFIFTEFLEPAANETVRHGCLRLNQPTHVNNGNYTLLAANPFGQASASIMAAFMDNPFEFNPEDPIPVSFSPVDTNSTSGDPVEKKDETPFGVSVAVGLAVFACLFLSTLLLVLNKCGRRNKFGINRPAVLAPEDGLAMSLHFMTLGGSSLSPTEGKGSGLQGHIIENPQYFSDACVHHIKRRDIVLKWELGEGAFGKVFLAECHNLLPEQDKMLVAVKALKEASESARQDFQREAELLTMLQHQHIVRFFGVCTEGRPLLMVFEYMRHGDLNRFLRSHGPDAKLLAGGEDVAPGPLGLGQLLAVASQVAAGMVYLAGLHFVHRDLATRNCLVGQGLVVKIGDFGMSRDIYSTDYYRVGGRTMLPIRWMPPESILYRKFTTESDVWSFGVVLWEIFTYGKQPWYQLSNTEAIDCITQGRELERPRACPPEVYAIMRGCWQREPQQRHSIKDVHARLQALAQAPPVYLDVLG

This experiment addresses TrkA (Homo sapiens (Human), UniProt P04629). In words: TrkA Omnia Assay. The experiment is classed as biochemical. The conditions noted are these: averaged IC50; 20 nM enzyme, 500 μM ATP, 10 μM peptide substrate. In short, it runs like this: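 Continuous fluorescent kinase read-out (ex 360 nm, em 485 nm) over 70 min, with initial rates fitted to 4- or 5-parameter logistic curves for IC50. Final conditions: 500 μM ATP, 10 μM Omnia Tyr Peptide #4, 20 nM TrkA, MOPS pH 7.5 buffer with MgCl2 and Triton X-100; enzyme and compound preincubated 10 min at ambient temperature.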
Regarding `O=C(Nc1c2c(nn1-c1ccccc1)CCC2)N[C@H]1CN(CC(F)(F)F)C[C@@H]1c1cccc(F)c1` [Example 204, 1-((3R,4S)-4-(3-fluorophenyl)-1-(2,2,2-trifluoroethyl)pyrrolidin-3-yl)-3-(2-phenyl-2,4,5,6-tetrahydrocyclopenta[c]pyrazol-3-yl)urea], the IC50 (in general, the concentration that inhibits the measured activity by half) was under 100 nM.
The value for `O=C(Nc1c2c(nn1-c1ccccc1)CCC2)N[C@@H]1CN(CC(F)(F)F)CC1c1cccnc1` (stereo partly drawn) [Example 213, 1-(2-phenyl-2,4,56-tetrahydrocyclopenta[c]pyrazol-3-yl)-3-((trans)-4-(pyridin-3-v)-1-(2,2,2-trifluoroethyl)pyrrolidin-3-yl)urea] was 100 to 1000 nM; that for `CCOc1nn(-c2ccccc2)c(NC(=O)N[C@@H]2CN(c3cn[nH]c3)C[C@H]2c2ccc(F)c(F)c2)c1C` [Example 216, 1-((3S,4R)-4-(3,4-difluorophenyl)-1-(1H-pyrazol-4-yl)pyrrolidin-3-yl)-3-(3-ethoxy-4-methyl-1-phenyl-1H-pyrazol-5-yl)urea] was under 100 nM; that for `CCOc1nn(-c2ccccc2)c(NC(=O)N[C@@H]2CN(c3cn[nH]c3)C[C@H]2c2cc(F)cc(F)c2)c1C` [Example 217, 1-((3S,4R)-4-(3,5-difluorophenyl)-1-(1H-pyrazol-4-yl)pyrrolidin-3-yl)-3-(3-ethoxy-4-methyl-1-phenyl-1H-pyrazol-5-yl)urea] was under 100 nM.
The result for `CCOc1nn(-c2ccccc2)c(NC(=O)N[C@@H]2CN(c3cc[nH]n3)C[C@H]2c2cc(F)cc(F)c2)c1C` [Example 218, 1-((3S,4R)-4-(3,5-difluorophenyvl)-1-(1H-pyrazol-3-yl)pyrrolidin-3-yl)-3-(3-ethoxy-4-methyl-1-phenyl-1H-pyrazol-5-yl)urea] reads under 100 nM; that for `CCOc1nn(-c2ccccc2)c(NC(=O)N[C@@H]2CN(c3c[nH]nc3C)C[C@H]2c2ccc(F)c(F)c2)c1C` [Example 219, 1-((3S,4R)-4-(3,4-difluorophenyl)-1-(3-methyl-1H-pyrazol-4-yl)pyrrolidin-3-yl)-3-(3-ethoxy-4-methyl-1-phenyl-1H-pyrazol-5-yl)urea], under 100 nM.
The result for `CCOc1nn(-c2ccccc2)c(NC(=O)N[C@@H]2CN(c3c[nH]nc3C(F)(F)F)C[C@H]2c2ccc(F)c(F)c2)c1C` [Example 220, 1-((3S,4R)-4-(3,4-difluorophenyl)-1-(3-(trifluoromethyl)-1H-pyrazol-4-yl)pyrrolidin-3-yl)-3-(3-ethoxy-4-methyl-1-phenyl-1H-pyrazol-5-yl)urea] reads 100 to 1000 nM; that for `Cc1c(OC[C@H](C)O)nn(-c2ccccc2)c1NC(=O)N[C@@H]1CN(c2cn[nH]c2)C[C@H]1c1ccc(F)c(F)c1` [Example 221, 1-((3S,4R)-4-(3,4-difluorophenyl)-1-(1H-pyrazol-4-yl)pyrrolidin-3-yl)-3-(3-((S)-2-hydroxypropoxy)-4-methyl-1-phenyl-1H-pyrazol-5-yl)urea], under 100 nM; that for `Cc1c(OC[C@H](O)CO)nn(-c2ccccc2)c1NC(=O)N[C@@H]1CN(c2cn[nH]c2)C[C@H]1c1ccc(F)c(F)c1` [Example 222, 1-((3S,4R)-4-(3,4-difluorophenyl)-1-(1H-pyrazol-4-yl)pyrrolidin-3-yl)-3-(3-((R)-2,3-dihydroxypropoxy)-4-methyl-1-phenyl-1H-pyrazol-5-yl)urea], under 100 nM.
In the case of `Cc1nn(-c2ccccc2)c(NC(=O)N[C@@H]2CN(c3cn[nH]c3)C[C@H]2c2cc(F)cc(F)c2)c1C` [Example 223, 1-((3S,4R)-4-(3,5-difluoro-phenyl)-1-(1H-pyrazol-4-yl)pyrrolidin-3-yl)-3-(3,4-dimethyl-1-phenyl-1H-pyrazol-5-yl)urea], the IC50 is under 100 nM.
The result for `Cc1nn(-c2ccccc2)c(NC(=O)N[C@@H]2CN(c3cn[nH]c3)C[C@H]2c2ccc(F)c(F)c2)c1C` [Example 224, 1-((3S,4R)-4-(3,4-difluorophenyl)-1-(1H-pyrazol-4-yl)pyrrolidin-3-yl)-3-(3,4-dimethyl-1-phenyl-1H-pyrazol-5-yl)urea] reads under 100 nM; that for `COCCCc1nn(-c2ccccc2)c(NC(=O)N[C@@H]2CN(c3cn[nH]c3)C[C@H]2c2ccc(F)c(F)c2)c1C` [Example 225, 1-((3S,4R)-4-(3,4-difluorophenyl)-1-(1H-pyrazol-4-yl)pyrrolidin-3-yl)-3-(3-(3-methoxypropyl)-4-methyl-1-phenyl-1H-pyrazol-5-yl)urea], under 100 nM.
The value for `COCCOc1nn(-c2ccccc2)c(NC(=O)N[C@@H]2CN(c3cn[nH]c3)C[C@H]2c2ccc(F)c(F)c2)c1C` [Example 226, 1-((3S,4R)-4-(3,4-difluorophenyl)-1-(1H-pyrazol-4-yl)pyrrolidin-3-yl)-3-(3-(2-methoxyethoxy)-4-methyl-1-phenyl-1H-pyrazol-5-yl)urea] was under 100 nM; that for `Cc1c(OCC(C)(C)O)nn(-c2ccccc2)c1NC(=O)N[C@@H]1CN(c2cn[nH]c2)C[C@H]1c1ccc(F)c(F)c1` [Example 227, 1-((3S,4R)-4-(3,4-difluorophenyl)-1-(1H-pyrazol-4-yl)pyrrolidin-3-yl)-3-(3-(2-hydroxy-2-methylpropoxy)-4-methyl-1-phenyl-1H-pyrazol-5-yl)urea] was under 100 nM; that for `CCOc1nn(-c2ccccc2)c(NC(=O)N[C@@H]2CN(c3ccnn3C)C[C@H]2c2ccccc2)c1C` [Example 228, 1-(3-ethoxy-4-methyl-1-phenyl-1H-pyrazol-5-yl)-3-((3S,4R)-1-(1-methyl-1H-pyrazol-5-yl)-4-phenylpyrrolidin-3-yl)urea] was under 100 nM.
The result for `CCOc1nn(-c2ccccc2)c(NC(=O)N[C@H]2CN(c3ccnn3C)C[C@@H]2c2ccccc2)c1C` [Example 229, 1-(3-ethoxy-4-methyl-1-phenyl-1H-pyrazol-5-yl)-3-((3R,4S)-1-(1-methyl-1H-pyrazol-5-yl)-4-phenylpyrrolidin-3-yl)urea] reads under 100 nM; that for `CCOc1nn(-c2ccccc2)c(NC(=O)N[C@@H]2CN(c3ccnn3C)C[C@H]2c2cc(F)cc(F)c2)c1C` [Example 230, 1-((3S,4R)-4-(3,5-difluorophenyl)-1-(1-methyl-1H-pyrazol-5-yl)pyrrolidin-3-yl)-3-(3-ethoxy-4-methyl-1-phenyl-1H-pyrazol-5-yl)urea], 100 to 1000 nM.
In the case of `CCOc1nn(-c2ccccc2)c(NC(=O)N[C@H]2CN(c3ccnn3C)C[C@@H]2c2cc(F)cc(F)c2)c1C` [Example 231, 1-((3R,4S)-4-(3,5-difluorophenyl)-1-(1-methyl-1H-pyrazol-5-yl)pyrrolidin-3-yl)-3-(3-ethoxy-4-methyl-1-phenyl-1H-pyrazol-5-yl)urea], the 50% inhibitory concentration (IC50) was under 100 nM.
The result for `CCOc1nn(-c2ccccc2)c(NC(=O)N[C@@H]2CN(c3ccccc3)C[C@H]2c2ccc(F)c(F)c2)c1C` [Example 232, 1-((3S,4R)-4-(3,4-difluorophenyl)-1-phenylpyrrolidin-3-yl)-3-(3-ethoxy-4-methyl-1-phenyl-1H-pyrazol-5-yl)urea] reads 100 to 1000 nM.
`CCOc1nn(-c2ccccc2)c(NC(=O)N[C@@H]2CN(c3ccccc3OC)C[C@H]2c2ccc(F)c(F)c2)c1C` [Example 233, 1-((3S,4R)-4-(3,4-difluorophenyl)-1-(2-methoxyphenyl)pyrrolidin-3-yl)-3-(3-ethoxy-4-methyl-1-phenyl-1H-pyrazol-5-yl)urea] returned an IC50 of 100 to 1000 nM.
